For data set [1], the system named is genus Staphylococcus, Staphylococcus epidermidis, Staphylococcus aureus, methicillin-resistant Staphylococcus epidermidis, and methicillin-resistant …. The following applies: cited from earlier work.
Data set [2] concerns S. aureus, E. coli, P. aeruginosa, K. pneumoniae, P. cepacia, E. cloacae, S. marcescens, S. pyogenes, E. faecalis-Vancomycin Resistant, C. albicans and B. …. The following applies: reported for blends with acrylic hot melt adhesive polymers; cited from earlier work.
Data set [3] relates to Staphylococcus aureus 6538. The data set can be described thus: MIC/MBC by tube dilution procedure. The class given is cell-based. The following applies: preliminary evaluation. The protocol:
(§1) The effectiveness of the antimicrobial property of pure DIMPTS is described in terms of minimum inhibitory concentration (MIC) and minimum bactericidal concentration (MBC) in Table II (A). Minimum inhibitory concentration is the lowest concentration that prevents the development of visible growth after a period of incubation. Minimum bactericidal concentration is the lowest concentration that achieves a 1000 fold or greater reduction in the original bacterial inoculum. The minimum inhibitory concentration and minimum bactericidal concentration is evaluated using tube dilution procedure.

For another data set, the system named is Escherichia coli 8739. The data set can be described thus: MIC/MBC by tube dilution procedure. The following applies: preliminary evaluation. The class given is cell-based. The protocol:
as §1

In data set [4] the test system is Streptococcus agalactiae 624. As to the kind of experiment: MIC/MBC by tube dilution procedure. The data set is classed as cell-based. The following applies: preliminary evaluation. The protocol: as §1
Data set [5] concerns Pseudomonas aeruginosa 9027. The data set can be described thus: MIC/MBC by tube dilution procedure. The class given is cell-based. The following applies: preliminary evaluation. The protocol:
as §1

A further data set relates to Candida albicans 10231. As to the kind of experiment: MIC/MBC by tube dilution procedure. The following applies: preliminary evaluation. The class given is cell-based. Here is the method: as §1
For data set [6], the system named is Staphylococcus epidermidis 51625. The data set can be described thus: MIC/MBC by tube dilution procedure. The following applies: preliminary evaluation. The class given is cell-based. The protocol:
as §1

For the next data set, the system named is Bacillus subtilis 902173. The data set can be described thus: MIC/MBC by tube dilution procedure. The data set is classed as cell-based. The following applies: preliminary evaluation. The protocol:
as §1

The subject of data set [7] is Enterococcus faecium 700221. As to the kind of experiment: MIC/MBC by tube dilution procedure. The class given is cell-based. The following applies: preliminary evaluation. The protocol: (§2) The effectiveness of the antimicrobial property of pure […] is described in terms of minimum inhibitory concentration (MIC) and minimum bactericidal concentration (MBC) in Table II (A). Minimum inhibitory concentration is the lowest concentration that prevents the development of visible growth after a period of incubation. Minimum bactericidal concentration is the lowest concentration that achieves a 1000 fold or greater reduction in the original bacterial inoculum. The minimum inhibitory concentration and minimum bactericidal concentration is evaluated using tube dilution procedure.

The subject of data set [8] is Staphylococcus aureus 33591. As to the kind of experiment: MIC/MBC by tube dilution procedure. The data set is classed as cell-based. The following applies: preliminary evaluation. The protocol: as §2
The conditions of data set [9]: aqueous; cited from earlier work.

In brackets after ≈: the same amount, converted by molar mass.

As for `Oc1cc(Cl)ccc1Oc1ccc(Cl)cc1Cl` [2,4,4′-trichloro-2′-hydroxydiphenyl ether], the Antimicrobial effect entry in [1] was “has an antimicrobial effect”.
On to `Cc1ccc(S(=O)(=O)C(I)I)cc1` [DIMPTS, diiodomethyl-p-tolylsulfone], for which, in data set [2], the “Zones of inhibition against several organisms” value is “zones of inhibition”. Besides, the MBC was under 250 µg/mL in [3]; under 250 µg/mL with Escherichia coli 8739; 125 to 250 µg/mL (≈ 296 to 592 µM) in data set [4]; 10 to 100 µg/mL (≈ 23.7 to 237 µM) in the data set with Candida albicans 10231; under 100 µg/mL in [6]; 50 to 100 µg/mL (≈ 118 to 237 µM) against Bacillus subtilis 902173. This compound returned an MBC in data set [8] of under 250 µg/mL. Moreover, the MIC in data set [3] was 100 µg/mL (≈ 237 µM); in the data set on Escherichia coli 8739 it was 100 µg/mL (≈ 237 µM); in data set [4] it was 50 µg/mL (≈ 118 µM); in data set [5], over 100 µg/mL; against Candida albicans 10231 it was 5 µg/mL (≈ 11.8 µM); in [6], 25 µg/mL (≈ 59.2 µM). Besides, the MIC came to 50 µg/mL (≈ 118 µM) in the data set on Bacillus subtilis 902173, 50 µg/mL (≈ 118 µM) in [7] and 12.5 µg/mL (≈ 29.6 µM) in data set [8].
`[O-][Cl+3]([O-])([O-])O` [perchloric acid]: in data set [9], the pKa is recorded as −5.0.

The values are drawn from patent US20090297469A1, “Cyanoacrylate Monomer Formulation Containing Diiodomethyl-p-tolylsulfone and 2,4,4'-Trichloro-2'-Hydroxydiphenyl Ether” (priority 2004, published 2009).
